Measurements: the supplement of paper PMC10307832

Key:
Assay in all cases: relative viability (nuclei count vs DMSO), 5 days (fraction); higher = more cells survive
Mirin + Pemetrexed = compound: N=C1NC(=O)/C(=C/c2ccc(O)cc2)S1 [Mirin] + Nc1nc2[nH]cc(CCc3ccc(C(=O)N[C@@H](CCC(=O)O)C(=O)O)cc3)c2c(=O)[nH]1 [Pemetrexed] (partner 0.2 µM)
Method in brief: (§1)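 Each reported value is a median over duplicate plates. It expresses relative viability: treated-well nuclei count divided by vehicle-well nuclei count. Lung cancer cell lines in 1536-well plates were dosed by pin tool a day after seeding, alone with one drug or with a fixed anchor-drug dose plus five library-drug doses (not always all listed) in √10 steps, and nuclei were counted after 5 days.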

Mirin + Navitoclax = compound: N=C1NC(=O)/C(=C/c2ccc(O)cc2)S1 [Mirin] + CC1(C)CCC(c2ccc(Cl)cc2)=C(CN2CCN(c3ccc(C(=O)NS(=O)(=O)c4ccc(N[C@H](CCN5CCOCC5)CSc5ccccc5)c(S(=O)(=O)C(F)(F)F)c4)cc3)CC2)C1 [Navitoclax] (partner 0.5 µM)
Method in brief: as §1

[1] = compound: CCn1c(-c2nonc2N)nc2cnc(Oc3cccc(NC(=O)c4ccc(OCCN5CCOCC5)cc4)c3)cc21 + Cc1cc(Nc2cc(N3CCN(C)CC3)nc(Sc3ccc(NC(=O)C4CC4)cc3)n2)n[nH]1 [Tozasertib] (partner 0.1 µM)
Method in brief: as §1

[2] = compound: CCn1c(-c2nonc2N)nc2cnc(Oc3cccc(NC(=O)c4ccc(OCCN5CCOCC5)cc4)c3)cc21 + CC(C)C[C@H](NC(=O)[C@H](Cc1ccccc1)NC(=O)c1cnccn1)B(O)O [Bortezomib] (partner 0.002 µM)
Method in brief: as §1

| Cell Line | relative viability (Mirin + Pemetrexed; first compound 0.25 µM) | relative viability (Mirin + Pemetrexed; first compound 0.7906 µM) | relative viability (Mirin + Pemetrexed; first compound 2.5 µM) | relative viability (Mirin + Pemetrexed; first compound 7.906 µM) | relative viability (Mirin + Pemetrexed; first compound 25 µM) | relative viability (Mirin + Navitoclax; first compound 0.25 µM) | relative viability (Mirin + Navitoclax; first compound 0.7906 µM) | relative viability (Mirin + Navitoclax; first compound 2.5 µM) | relative viability (Mirin + Navitoclax; first compound 7.906 µM) | relative viability (Mirin + Navitoclax; first compound 25 µM) | relative viability ([1]; first compound 0.04 µM) | relative viability ([1]; first compound 0.1265 µM) | relative viability ([1]; first compound 0.4 µM) | relative viability ([1]; first compound 1.265 µM) | relative viability ([1]; first compound 4 µM) | relative viability ([2]; first compound 0.04 µM) | relative viability ([2]; first compound 0.1265 µM) | relative viability ([2]; first compound 0.4 µM) | relative viability ([2]; first compound 1.265 µM) | relative viability ([2]; first compound 4 µM) |
| --- | --- | --- | --- | --- | --- | --- | --- | --- | --- | --- | --- | --- | --- | --- | --- | --- | --- | --- | --- | --- |
| NCI-H596 | 0.493 | 0.542 | 0.437 | 0.521 | 0.539 | 0.966 | 0.855 | 0.96 | 1.15 | 0.962 | 1.24 | 0.945 | 0.828 | 0.743 | 1.01 | 0.985 | 0.905 | 0.924 | 0.8 | 0.746 |
| NCI-H1755 | 0.38 | 0.402 | 0.404 | 0.348 | 0.384 | 1.03 | 1.11 | 1.03 | 1.09 | 1.14 | 0.527 | 0.58 | 0.534 | 0.416 | 0.349 | 0.97 | 0.781 | 0.649 | 0.533 | 0.512 |
| NCI-H1993 | 0.625 | 0.633 | 0.578 | 0.541 | 0.584 | 1.03 | 1.02 | 0.913 | 0.932 | 0.749 | 0.634 | 0.705 | 0.502 | 0.501 | 0.455 | 1.09 | 1.16 |  | 0.882 | 1.02 |
| NCI-H2347 | 0.424 | 0.474 | 0.47 | 0.422 | 0.473 | 0.8 | 0.784 | 0.812 | 0.825 | 0.893 | 0.634 | 0.637 | 0.674 | 0.45 | 0.395 | 1.1 | 0.959 | 0.792 | 0.49 | 0.649 |
| NCI-H1437 | 0.313 | 0.351 | 0.377 | 0.345 | 0.31 | 1.09 | 1.09 | 1.12 | 1.07 | 1.05 | 0.432 | 0.382 | 0.383 | 0.315 | 0.314 | 0.518 | 0.427 | 0.514 | 0.499 | 0.364 |
| NCI-H3122 | 0.195 | 0.213 | 0.209 | 0.208 | 0.264 | 1.01 | 1.1 | 1.01 | 1.09 | 1.15 | 0.501 | 0.395 | 0.385 | 0.332 | 0.325 | 1.05 | 1.01 | 0.93 | 0.691 | 0.738 |
| NCI-H2023 | 0.254 | 0.258 | 0.218 | 0.247 | 0.156 | 0.991 | 0.963 | 1.01 | 0.995 | 0.972 | 0.363 | 0.334 | 0.277 | 0.16 | 0.136 | 1.25 | 0.918 | 0.621 | 0.504 | 0.394 |
| PC-14 | 0.127 | 0.14 | 0.143 | 0.134 | 0.171 | 1.04 | 1.04 | 1.08 | 1.03 | 1.17 | 0.691 | 0.47 | 0.422 | 0.326 | 0.321 | 1.04 | 0.857 | 0.905 | 0.776 | 0.729 |
| NCI-H1734 | 0.441 | 0.44 | 0.414 | 0.355 | 0.346 | 0.838 | 0.746 | 0.793 | 0.742 | 0.771 | 0.223 | 0.264 | 0.234 | 0.179 | 0.212 | 0.889 | 0.837 | 0.511 | 0.412 | 0.35 |
| NCI-H1650 | 0.339 | 0.382 | 0.377 | 0.324 | 0.359 | 1.05 | 1.53 | 1.21 | 1.21 | 1.06 | 0.469 | 0.394 | 0.386 | 0.223 | 0.25 | 0.258 | 0.21 | 0.196 | 0.209 | 0.211 |
| NCI-H647 | 0.198 | 0.161 | 0.146 | 0.172 | 0.111 | 1.05 |  | 1.06 | 1.11 | 1.08 | 0.338 | 0.267 | 0.29 | 0.146 | 0.0969 | 0.847 | 0.654 | 0.614 | 0.536 | 0.631 |
| HCC-15 | 0.217 | 0.233 | 0.218 | 0.196 | 0.203 | 0.755 | 0.689 | 0.762 | 0.713 | 0.52 | 0.451 | 0.403 | 0.417 | 0.278 | 0.258 | 1.2 | 0.992 | 0.882 | 0.757 | 0.913 |
| NCI-H838 | 0.235 | 0.259 | 0.258 | 0.236 | 0.188 | 1.19 | 1.24 | 1.31 | 1.19 | 1.11 | 0.259 | 0.277 | 0.237 | 0.196 | 0.174 | 0.729 | 0.397 | 0.319 | 0.385 | 0.31 |
| HOP-62 | 0.36 | 0.286 | 0.316 | 0.288 | 0.361 | 1.03 | 1.02 | 0.955 | 0.888 | 1.43 | 0.393 | 0.445 | 0.344 | 0.283 | 0.234 | 0.875 | 0.829 | 0.816 | 0.756 | 0.212 |
| NCI-H322M | 0.633 | 0.528 | 0.615 | 0.713 | 0.568 | 1.26 | 1.28 | 1.25 | 1.22 | 1.31 | 0.481 | 0.466 | 0.459 | 0.366 | 0.403 | 1.2 | 1.26 | 1.22 | 1.58 | 1.55 |
| EKVX | 0.379 | 0.318 | 0.397 | 0.502 | 0.346 | 1.01 | 0.932 | 1.11 | 0.875 | 0.968 | 0.423 | 0.473 | 0.46 | 0.216 | 0.265 | 1.22 | 1.05 | 0.902 | 0.932 | 1.02 |
